Data published in patent publication US12350259B2, “Methods of treating migraine” (Allergan Pharmaceuticals International Limited, priority 2021, dated 2025).
Where “and” joins values, the source holds several entries; their conditions need not be identical. Equal entries are not always repeated. Where two headings read alike, the source gives them in different places.

How the values were obtained:
[1] = Atogepant-rifampin drug interaction study: atogepant plasma PK; format: in vivo, human; conditions: for Tmax: read-out: Tmax (median); for Vd/F: read-out: Vz/F
Procedure: The study consisted of a Screening Visit, two study periods, an end-of-treatment (EOT) visit, and a follow-up visit. […] [table] […] Relative to the time that atogepant was administered, blood samples for atogepant plasma PK were to be collected at the following times: • Days 1 and 12: 0 hour (predose) and at 0.5, 1, 1.5, 2, 3, 4, 6, 8, 12, 16, 24, 36, and 48 hours post dose. • Day 7: 0 hour (predose) and at 0.5, 1, 1.5, 2, 3, 4, 6, 8, 12, 16, and 24 hours postdose

[2] = Hepatic impairment study: atogepant plasma protein binding; format: in vitro ADME, human; conditions: human, plasma, oral, 60 mg, 2 hr post dose, read-out: plasma protein binding, percent bound (converted)
Procedure: (§1) Protein binding blood samples were collected from all participants starting on Day 1 at 0 hour (predose) and at 2 hours post dose. The pre-dose samples collected prior to dosing for each participant were externally spiked with known quantities of atogepant. Percent bound atogepant was determined in the 2-hour sample using direct measurement of the atogepant concentrations in the blood sample.

plasma protein = assay: as above; format: in vitro ADME, human; conditions: for fraction unbound: human, 0 hr (predose, spiked sample), read-out: plasma protein binding, percent bound (converted); for plasma protein binding, percent bound: 2 hr post dose
Procedure: as §1

[3] = Atogepant-esomeprazole drug interaction study: atogepant PK; format: in vivo, human; conditions: for Tmax: human, plasma, oral
Procedure: A phase 1, open-label, 2-intervention, single-sequence, nonrandomized, crossover, drug-drug interaction study was conducted to evaluate the effects of multiple-dose esomeprazole magnesium 40 mg on pharmacokinetics (PK) and safety of co-administered single-dose atogepant 60 mg in healthy adults.
In this study, healthy adult participants received single-dose oral atogepant 60 mg on day 1, followed by once-daily esomeprazole 40 mg on days 7-13, co-administered with single-dose atogepant on day 12. Samples for atogepant PK analysis were collected on days 1 and 12. PK parameters calculated from atogepant plasma concentrations included peak plasma concentration (Cmax); time to Cmax (tmax); area under plasma concentration-time curve from time 0 to […] (AUC0-t) and from time 0 to infinity (AUC0-∞). PK parameters of atogepant alone vs. co-administered with esomeprazole were compared using a mixed-effects model. Statistical significance was achieved if 90% confidence intervals (CIs) for geometric least squares mean ratios (GMRs) of PK parameter values for atogepant co-administered with esomeprazole to atogepant administered alone were within 80%-125%.

[4] = Food effect study: safety and tolerability; format: in vivo, human; conditions: fed and fasted
Procedure: Plasma samples were collected pre-dose and at predetermined time intervals up to 48 hours after dosing. Atogepant plasma concentrations were determined using a validated LC-MS/MS assay and the pharmacokinetic (PK) parameters were calculated using WinNonlin. A linear mixed-effects model with sequence, study intervention, and period as fixed effects, and participant nested within sequence as a random effect was used to compare the natural logarithm transformed values of atogepant PK parameters AUC0-t, AUC0-inf, and Cmax. Safety was monitored via ECGs, vital signs, clinical labs, and adverse events.

[5] = Clinical pharmacokinetics of atogepant after oral administration (summary); format: in vivo, human
MAO-A = MAO-A (Homo sapiens, UniProt P21397); assay: Enzyme inhibition; format: in vitro ADME; conditions: clinically relevant concentrations
Sequence of MAO-A (P21397 whole entry): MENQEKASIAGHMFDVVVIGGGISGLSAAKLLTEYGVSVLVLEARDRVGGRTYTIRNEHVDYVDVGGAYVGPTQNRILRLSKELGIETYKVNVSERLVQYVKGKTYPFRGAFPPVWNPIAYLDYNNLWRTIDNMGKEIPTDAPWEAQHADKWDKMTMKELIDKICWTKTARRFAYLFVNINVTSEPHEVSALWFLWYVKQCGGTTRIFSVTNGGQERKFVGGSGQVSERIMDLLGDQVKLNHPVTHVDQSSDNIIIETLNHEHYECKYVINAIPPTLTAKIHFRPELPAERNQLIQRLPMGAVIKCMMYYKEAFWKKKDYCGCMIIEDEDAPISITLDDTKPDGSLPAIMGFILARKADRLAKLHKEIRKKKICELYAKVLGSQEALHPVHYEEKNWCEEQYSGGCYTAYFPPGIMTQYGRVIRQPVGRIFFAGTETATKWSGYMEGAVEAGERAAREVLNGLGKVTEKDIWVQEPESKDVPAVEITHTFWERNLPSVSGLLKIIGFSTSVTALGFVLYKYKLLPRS

CYP2B6 = assay: CYP induction; format: in vitro ADME; conditions: clinically relevant concentrations
CYP3A4 = assay: CYP induction; format: in vitro ADME; conditions: clinically relevant concentrations
P-gp = P-gp (Homo sapiens, UniProt P08183); assay: Transporter substrate; format: in vitro ADME
Sequence of P-gp (P08183 whole entry): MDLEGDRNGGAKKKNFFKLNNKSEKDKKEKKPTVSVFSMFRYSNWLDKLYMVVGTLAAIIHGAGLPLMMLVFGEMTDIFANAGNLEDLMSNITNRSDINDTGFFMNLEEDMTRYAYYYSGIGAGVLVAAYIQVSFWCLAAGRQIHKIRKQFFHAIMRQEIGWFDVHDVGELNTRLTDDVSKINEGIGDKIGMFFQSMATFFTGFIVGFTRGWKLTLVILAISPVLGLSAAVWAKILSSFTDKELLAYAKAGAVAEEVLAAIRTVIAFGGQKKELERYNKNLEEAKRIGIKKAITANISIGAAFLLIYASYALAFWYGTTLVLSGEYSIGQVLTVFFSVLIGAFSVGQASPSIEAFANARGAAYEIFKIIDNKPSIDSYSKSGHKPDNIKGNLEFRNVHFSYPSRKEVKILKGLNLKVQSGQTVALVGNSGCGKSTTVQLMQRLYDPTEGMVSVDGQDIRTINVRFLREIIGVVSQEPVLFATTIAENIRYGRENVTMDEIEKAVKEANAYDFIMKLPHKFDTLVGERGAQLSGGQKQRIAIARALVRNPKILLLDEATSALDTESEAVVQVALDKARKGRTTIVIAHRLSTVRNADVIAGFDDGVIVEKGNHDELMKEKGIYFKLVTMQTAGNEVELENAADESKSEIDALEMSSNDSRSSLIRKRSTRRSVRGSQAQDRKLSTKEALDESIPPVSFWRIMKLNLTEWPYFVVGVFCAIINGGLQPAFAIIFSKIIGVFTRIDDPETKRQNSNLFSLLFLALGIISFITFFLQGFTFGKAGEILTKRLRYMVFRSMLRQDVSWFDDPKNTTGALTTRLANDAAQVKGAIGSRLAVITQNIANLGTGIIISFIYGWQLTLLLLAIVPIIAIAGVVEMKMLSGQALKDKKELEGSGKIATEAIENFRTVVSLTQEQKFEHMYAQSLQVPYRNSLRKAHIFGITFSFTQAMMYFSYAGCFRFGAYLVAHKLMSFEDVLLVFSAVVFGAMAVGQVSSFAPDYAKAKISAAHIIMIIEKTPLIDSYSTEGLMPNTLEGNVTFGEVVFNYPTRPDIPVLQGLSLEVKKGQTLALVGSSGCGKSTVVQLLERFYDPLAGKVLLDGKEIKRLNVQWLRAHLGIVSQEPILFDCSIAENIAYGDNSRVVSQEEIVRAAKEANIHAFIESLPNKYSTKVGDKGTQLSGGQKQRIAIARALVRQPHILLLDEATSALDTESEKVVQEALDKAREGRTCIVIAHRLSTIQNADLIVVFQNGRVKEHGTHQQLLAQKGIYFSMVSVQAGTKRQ

OATP1B1 = OATP1B1 (Homo sapiens, UniProt Q9Y6L6); assay: Transporter substrate; format: in vitro ADME
Sequence of OATP1B1 (Q9Y6L6 whole entry): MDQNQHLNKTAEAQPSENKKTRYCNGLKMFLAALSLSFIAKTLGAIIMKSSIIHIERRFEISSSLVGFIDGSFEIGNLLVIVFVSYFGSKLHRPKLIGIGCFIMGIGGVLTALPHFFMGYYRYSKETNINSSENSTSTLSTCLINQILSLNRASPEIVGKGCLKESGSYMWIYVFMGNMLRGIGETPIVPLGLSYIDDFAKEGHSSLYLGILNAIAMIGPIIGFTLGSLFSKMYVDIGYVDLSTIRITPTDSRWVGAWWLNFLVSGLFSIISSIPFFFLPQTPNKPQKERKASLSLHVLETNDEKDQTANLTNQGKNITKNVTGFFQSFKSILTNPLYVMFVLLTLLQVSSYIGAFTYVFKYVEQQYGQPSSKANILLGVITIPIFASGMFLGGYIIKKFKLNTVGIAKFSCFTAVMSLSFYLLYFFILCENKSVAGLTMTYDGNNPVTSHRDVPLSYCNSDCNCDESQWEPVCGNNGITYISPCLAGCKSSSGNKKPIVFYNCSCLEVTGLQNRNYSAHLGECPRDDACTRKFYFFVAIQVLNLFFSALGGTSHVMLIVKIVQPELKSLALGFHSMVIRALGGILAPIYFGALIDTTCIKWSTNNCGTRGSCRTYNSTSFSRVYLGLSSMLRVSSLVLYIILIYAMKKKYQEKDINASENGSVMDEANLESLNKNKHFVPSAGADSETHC

OATP1B3 = OATP1B3 (Homo sapiens, UniProt Q9NPD5); assay: Transporter inhibition; format: in vitro ADME
Sequence of OATP1B3 (Q9NPD5 whole entry): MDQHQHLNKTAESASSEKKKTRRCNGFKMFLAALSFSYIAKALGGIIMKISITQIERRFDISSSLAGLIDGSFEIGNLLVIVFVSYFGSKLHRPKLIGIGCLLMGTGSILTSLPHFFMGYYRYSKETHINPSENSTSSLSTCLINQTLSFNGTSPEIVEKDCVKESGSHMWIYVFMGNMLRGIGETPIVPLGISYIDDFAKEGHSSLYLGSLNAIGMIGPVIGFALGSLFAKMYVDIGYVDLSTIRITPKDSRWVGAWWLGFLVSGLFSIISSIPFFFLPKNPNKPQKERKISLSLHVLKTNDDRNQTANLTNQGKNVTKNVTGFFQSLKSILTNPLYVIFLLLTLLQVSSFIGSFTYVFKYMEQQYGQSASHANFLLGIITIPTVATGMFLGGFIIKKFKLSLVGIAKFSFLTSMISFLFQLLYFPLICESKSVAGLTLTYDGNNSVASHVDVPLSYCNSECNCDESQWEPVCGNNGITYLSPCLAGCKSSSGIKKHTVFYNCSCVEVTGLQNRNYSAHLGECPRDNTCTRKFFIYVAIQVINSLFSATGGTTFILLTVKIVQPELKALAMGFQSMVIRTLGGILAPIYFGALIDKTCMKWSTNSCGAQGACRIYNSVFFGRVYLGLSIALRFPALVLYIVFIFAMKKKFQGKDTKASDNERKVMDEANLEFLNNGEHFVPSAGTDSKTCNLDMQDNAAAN

[6] = Treatment A: atogepant 60 mg alone
[7] = Treatment B1 (single-dose rifampin) / Treatment A
[8] = Treatment B2 (multi-dose rifampin) / Treatment A
[9] = Treatment B2: atogepant 60 mg + multiple-dose rifampin 600 mg
[10] = atogepant 60 mg + multiple-dose rifampin 600 mg (strong CYP3A4 inducer) vs atogepant alone
[11] = atogepant 60 mg + single-dose rifampin 600 mg (OATP inhibitor) vs atogepant alone
[12] = both sexes, human, plasma, oral, 60 mg, Treatment A: atogepant 60 mg alone
[13] = both sexes, human, plasma, oral, Treatment B2: atogepant 60 mg + multiple-dose rifampin 600 mg

With `C[C@@H]1[C@H](c2c(F)ccc(F)c2F)C[C@H](NC(=O)c2cnc3c(c2)C[C@@]2(C3)C(=O)Nc3ncccc32)C(=O)N1CC(F)(F)F` [atogepant, (3′S)-N-[(3S,5S,6R)-6-methyl-2-oxo-1-(2,2,2-trifluoroethyl)-5-(2,3,6-trifluorophenyl)piperidin-3-yl]-2′-oxo-1′,2′,5,7-tetrahydrospiro[cyclopenta[b]pyridine-6,3′-pyrrolo[2,3-b]pyridine]-3-carboxamide] the CL/F [1, 6] was 22.8 L/h, the λz [1, 6] was 0.0778 h⁻¹ and the “AUC0-24 Ratio of Geometric Means Test/Ref” value [1, 7] was 284.84%. For the same compound, the “Cmax Ratio of Geometric Means Test/Ref” value [1, 7] was 222.65%, the “AUC0-t Ratio of Geometric Means Test/Ref” value [1, 8] was 40.46% and the “AUC0-∞ Ratio of Geometric Means Test/Ref” value [1, 8] was 38.85%. The “Cmax Ratio of Geometric Means Test/Ref” value [1, 8] was 70.06%, the CL/F [1, 9] was 58.3 L/h and 58.3^b L/h and the λz [1, 9] was 0.325^b 1/h. For the same compound, the “reduction of atogepant AUC0-t (AUC)” value [1, 10] was 60%, the “reduction of atogepant Cmax” value [1, 10] was 30% and the “reduction of atogepant AUC0-∞” value ([1]; atogepant 60 mg + multiple-dose rifampin 600 mg vs atogepant alone) was 61%. The “increase in atogepant AUC0-24” value [1, 11] was 2.85 fold, the “increase in atogepant Cmax” value [1, 11] was 2.23 fold and the half-life [1, 12] was 11.4 h. For the same compound, the AUC(0-t) ([1]; both sexes, human, plasma, oral, 60 mg, Treatment A: atogepant 60 mg alone, read-out: AUC0-24) was 2870 ng·h/mL, the AUC(0-t) ([1]; both sexes, human, plasma, oral, 60 mg, Treatment A: atogepant 60 mg alone, read-out: AUC0-24 Geometric LSM, Reference) was 2680 ng·h/mL and the AUC(0-t) ([1]; both sexes, human, plasma, oral, 60 mg, Treatment A: atogepant 60 mg alone, read-out: AUC0-t) was 2960 ng·h/mL. It also gave an AUC(0-t) ([1]; both sexes, human, plasma, oral, 60 mg, Treatment A: atogepant 60 mg alone, read-out: AUC0-t Geometric LSM, Reference) of 2770 ng·h/mL, an AUC(0-inf) ([1]; both sexes, human, plasma, oral, 60 mg, Treatment A: atogepant 60 mg alone, read-out: AUC0-∞) of 3000 ng·h/mL and an AUC(0-inf) ([1]; both sexes, human, plasma, oral, 60 mg, Treatment A: atogepant 60 mg alone, read-out: AUC0-∞ Geometric LSM, Reference) of 2810 ng·h/mL. For the same compound, the Cmax ([1]; both sexes, human, plasma, oral, 60 mg, Treatment A: atogepant 60 mg alone, read-out: Cmax) was 711 ng/mL, the Cmax ([1]; both sexes, human, plasma, oral, 60 mg, Treatment A: atogepant 60 mg alone, read-out: Cmax Geometric LSM, Reference) was 649 ng/mL and the Tmax [1, 12] was 1.5 h. It also gave an AUC(0-t) ([1]; both sexes, human, plasma, oral, Treatment B1: atogepant 60 mg + single-dose rifampin 600 mg, read-out: AUC0-24) of 8130 ng·h/mL, an AUC(0-t) ([1]; both sexes, human, plasma, oral, Treatment B1: atogepant 60 mg + single-dose rifampin 600 mg, read-out: AUC0-24 Geometric LSM, Test) of 7630 ng·h/mL and a Cmax ([1]; both sexes, human, plasma, oral, Treatment B1: atogepant 60 mg + single-dose rifampin 600 mg, read-out: Cmax) of 1550 ng/mL. It also gave a Cmax ([1]; both sexes, human, plasma, oral, Treatment B1: atogepant 60 mg + single-dose rifampin 600 mg, read-out: Cmax Geometric LSM, Test) of 1440 ng/mL, a Tmax ([1]; both sexes, human, plasma, oral, Treatment B1: atogepant 60 mg + single-dose rifampin 600 mg) of 2 h and a half-life [1, 13] of 2.39 h. For the same compound, the AUC(0-t) ([1]; both sexes, human, plasma, oral, Treatment B2: atogepant 60 mg + multiple-dose rifampin 600 mg, read-out: AUC0-t) was 1180 ng·h/mL, the AUC(0-t) ([1]; both sexes, human, plasma, oral, Treatment B2: atogepant 60 mg + multiple-dose rifampin 600 mg, read-out: AUC0-t Geometric LSM, Test) was 1120 ng·h/mL and the AUC(0-inf) ([1]; both sexes, human, plasma, oral, Treatment B2: atogepant 60 mg + multiple-dose rifampin 600 mg, read-out: AUC0-∞) was 1130 ng·h/mL. It also gave an AUC(0-inf) ([1]; both sexes, human, plasma, oral, Treatment B2: atogepant 60 mg + multiple-dose rifampin 600 mg, read-out: AUC0-∞ Geometric LSM, Test) of 1090 ng·h/mL, a Cmax ([1]; both sexes, human, plasma, oral, Treatment B2: atogepant 60 mg + multiple-dose rifampin 600 mg, read-out: Cmax) of 487 ng/mL and a Cmax ([1]; both sexes, human, plasma, oral, Treatment B2: atogepant 60 mg + multiple-dose rifampin 600 mg, read-out: Cmax Geometric LSM, Test) of 454 ng/mL. The Tmax [1, 13] was 1.5 h, the Vd/F [1, 13] was 197 L and the reduction in mean apparent half-life ([1]; both sexes, human, plasma, oral, atogepant + multiple dose rifampin vs atogepant alone, read-out: reduction of mean apparent T1/2 (converted)) was roughly 9 h. The Vd/F ([1]; both sexes, human, plasma, oral, Treatment A: atogepant 60 mg alone) was 390 L, the fraction unbound at 2 h ([2]; mild-impaired) was 0.026 and the fraction unbound at 2 h ([2]; moderate-impaired) was 0.029. The fraction unbound at 2 h ([2]; normal hepatic function) was 0.018, the fraction unbound at 2 h ([2]; severe-impaired) was 0.047 and the fraction unbound (plasma protein; mild-impaired) was 0.0297. The fraction unbound (plasma protein; moderate-impaired) was 0.034, the fraction unbound (plasma protein; normal hepatic function) was 0.0211 and the fraction unbound (plasma protein; severe-impaired) was 0.0552. For the same compound, the “plasma protein binding, percent bound” value (plasma protein; mild-impaired) was 97.36 ± 0.70%, the “plasma protein binding, percent bound” value (plasma protein; moderate-impaired) was 97.05 ± 0.62% and the “plasma protein binding, percent bound” value (plasma protein; normal hepatic function) was 98.21 ± 0.46%. For the same compound, the “plasma protein binding, percent bound” value (plasma protein; severe-impaired) was 95.34 ± 0.85%, the “reduced Cmax” value ([3]; coadministration with esomeprazole) was 23% and the Tmax ([3]; 60 mg, atogepant 60 mg alone, read-out: median plasma atogepant tmax) was 1.51 h. For the same compound, the Tmax ([3]; atogepant 60 mg coadministered with esomeprazole 40 mg, read-out: median plasma atogepant tmax) was 3 h, the Tmax ([3]; coadministration with esomeprazole vs alone, read-out: delay of median tmax) was 1.5 h and the “participants with TEAEs considered related to study intervention” value ([4]; overall) was 15%. For the same compound, the participants with arthralgia ([4]; overall) was 10.0%, the “participants with back pain” value ([4]; overall) was 10.0% and the “participants with treatment emergent AEs (TEAEs)” value ([4]; overall) was 35.0%. For the same compound, the safety and tolerability ([4]; single doses of 60-mg IR formulation) was “safe and well-tolerated”, the “mean apparent oral clearance (CL/F)” value ([5]; human, in vivo, po) was “approximately 19 L/hr” and the half-life ([5]; human, plasma, oral, read-out: elimination half-life (converted)) was roughly 11 h. For the same compound, the Vd/F ([5]; human, plasma, after oral administration, read-out: mean apparent volume distribution (Vz/F)) was roughly 282 L, the accumulation ([5]; once daily dosing) was “no accumulation” and the dose proportionality ([5]; once daily dosing) was “dose-proportional pharmacokinetics up to 170 mg”. The “inhibition of MAO-A” value (MAO-A) was “does not inhibit”, the “induction of CYP2B6” value (CYP2B6) was “not an inducer” and the “induction of CYP3A4” value (CYP3A4) was “not an inducer”. The “substrate of P-gp” value (P-gp) was “substrate”, the “substrate of OATP1B1” value (OATP1B1) was “substrate” and the “inhibition of OATP1B3” value (OATP1B3) was “weak inhibitor”.
